Reference: US20260109721A1, “IONIZABLE CATIONIC LIPIDS INCORPORATING SILICON: SYNTHESIS AND LNP FORMULATION” (priority 2023, published 2026)

Key:
[1] = Encapsulation efficiency of loaded LNPs, RiboGreen RNA assay (Method A); type: physicochemical; details: encapsulation efficiency of mRNA-loaded LNP, Method A, RiboGreen
Experimental: The synthesized lipids were tested in term of in vitro transfection efficacy and toxicity on HeLa cells. In order to perform the mentioned biological tests, appropriate LNPs had to be formulated from the synthesized lipids. The formulation technique was different in Method A and B. The particle size, polydispersity index (PDI) and zeta potential of resulting LNPs were determined by means of Dynamic Light Scattering technique (DLS). Prior to biological testing the encapsulation efficiency (EE) of the loaded LNPs was determined by using RiboGreen RNA assay. In case of Method A Luc mRNA while in case of Method B GFP mRNA was transfected into the cells. In parallel with the transfection experiments, toxicity of the investigated LNPs was determined, in case of Method A resazurin assay while in case of Method B MTT assay was used. Additionally, the toxicity of the lipids was investigated on HepG2 cells and IC50 values were determined.
• 1. Preparation of sample stock solutions: In the top row of the 96-well plate (Row A in the plate), add 297 μL of TE buffer pH 7.4 (see Table 1) to a single well for each sample plus a single well for a PBS blank using a multichannel pipette.
• 2. Add 3 μL of sample (at 0.5 mg/ml) to these wells for a final volume of 300 μL. Add 3 μL of PBS to the blank well. Pipette to mix. This is your stock solution for each sample. The final RNA concentration of these stock solutions should be approximately 4-7 μg/mL. • 3. mRNA-LNP sample setup: • a. Add 50 μL of TE buffer pH 7.5 to the two wells directly below each sample (Rows B and C in the plate). • b. Add 50 μL of sample stock solution from Row A into the wells in Rows B and C (this assay is run in duplicate. All liquid handling should be done using a multichannel pipette). • c. Add 50 μL of Triton buffer to the wells in Rows D and E (in the plate) below each sample. • d. Add 50 μL of sample stock solution from Row A into the wells in Rows D and E. • 4. RiboGreen RNA standard curve setup: Dilute the RNA standard to produce an RNA stock at a final concentration of 20 μg/mL in TE buffer pH 7.4. The final volume should be 150 μL. Set up a standard curve (in duplicate) as using the RNA stock (20 μg/mL siRNA), TE buffer pH 7.5, and Triton X-100 buffer according the Table 2 and Table 3 below.
• 5. Once samples and standard curve are plated, incubate the plate at 37° C. for 10 min to lyse mRNA-LNP in the presence of Triton X-100 buffer. • 6. Meanwhile, prepare RiboGreen Solution: Sum the total number of sample wells and standard curve wells. Add three to this number, and multiply the total by 100. This is the total volume, in μL, of RiboGreen Solution needed for this assay. In a 15 mL RNAse-free Falcon tube, dilute the RiboGreen Reagent 1:100 into TE buffer pH 7.5 to the total volume calculated. • 7. Addition of RiboGreen Solution and sample readings: Remove a 96-well plate from 37° C. incubator; let it cool to room temperature as RiboGreen binding is somewhat temperature dependent. Add 100 μL of RiboGreen Solution to each well. Pop any air bubbles with a needle. Read using fluorescent plate reader (excitation=480, emission=525). • 8. Sample analysis: Use the data generated by the RiboGreen standard curve to calculate the concentration of mRNA. Transfection Efficiency with Luciferase-mRNA (Method A)

HepG2 cell line = test: In vitro toxicity study on HepG2 cell line (resazurin, viability and IC50); type: cell-based, human; details: resazurin; for Viability (%) at different lipid concentrations, mean: HepG2 cells, 48 h post-treatment, relative to ethanol vehicle controls; for IC50: Homo sapiens, lipid toxicity, HepG2, 48 h post-treatment, 6.25-800 μM, read-out: IC50 value, μM (on HepG2 cell)
Method in brief: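 HepG2 cells (1000/well) were treated after overnight incubation with lipids at 6.25–800 μM for 48 h. Viability was read by resazurin fluorescence (530/580 nm) after 5 h at 37 °C, relative to ethanol vehicle controls. IC50 values came from concentration-response curves.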

Structure (SMILES)	EE (%) [1] [%]	Viability (%) at different lipid concentrations, mean (HepG2 cell line; 6.25 μM lipid) [%]	Viability (%) at different lipid concentrations, mean (HepG2 cell line; 12.5 μM lipid) [%]	Viability (%) at different lipid concentrations, mean (HepG2 cell line; 25 μM lipid) [%]	Viability (%) at different lipid concentrations, mean (HepG2 cell line; 50 μM lipid) [%]	Viability (%) at different lipid concentrations, mean (HepG2 cell line; 100 μM lipid) [%]	Viability (%) at different lipid concentrations, mean (HepG2 cell line; 200 μM lipid) [%]	Viability (%) at different lipid concentrations, mean (HepG2 cell line; 400 μM lipid) [%]	Viability (%) at different lipid concentrations, mean (HepG2 cell line; 800 μM lipid) [%]	IC50 (HepG2 cell line) [µM]
CCCCCCCCCCCCCCCCOC(CCCCCCCCCCCCCCC)O[Si](C)(C)OCCCCCCN(CCO)CCO (stereo not drawn) [Example 49, 3-(2-hydroxyethyl)-11,11-dimethyl-13-pentadecyl-10,12,14-trioxa-3-aza-11-silatriacontan-1-ol]	84	101.6	100.3	100.4	101.0	106.4	118.4	112.6	103.0	> 800
CCCCCCCC/C=C\CCCCCCCCOC(=O)C(C)(C)CC(OCCCCCCCC/C=C\CCCCCCCC)O[Si](C)(C)OCCCCCCN1CCCCC1CO (stereo not drawn) [Example 89, (Z)-octadec-9-en-1-yl 4-((((6-(2-(hydroxymethyl)piperidin-1-yl)hexyl)oxy)dimethylsilyl)oxy)-2,2-dimethyl-4-(((Z)-octadec-9-en-1-yl)oxy)butanoate]	89	101.4	97.9	97.9	102.8	108.3	106.6	99.5	91.6	> 800
CCCCC/C=C\C/C=C\CCCCCCCCOC(CCCCCCC/C=C\C/C=C\CCCCC)O[Si](C)(C)OCCCCCCN1CCN(CCO)CC1 (stereo not drawn) [Example 58, 2-(4-((20Z,23Z)-10-((8Z,11Z)-heptadeca-8,11-dien-1-yl)-8,8-dimethyl-7,9,11-trioxa-8-silanonacosa-20,23-dien-1-yl)piperazin-1-yl)ethan-1-ol]	86	104.2	97.0	102.1	101.2	104.1	101.6	40.3	3.8	375
CCCCC/C=C\C/C=C\CCCCCCCC(OCCCCCCCCCCCCCCCC)O[Si](C)(C)OCCCCCCN(CCO)CCO (stereo not drawn) [Example 44, 13-((8Z,11Z)-heptadeca-8,11-dien-1-yl)-3-(2-hydroxyethyl)-11,11-dimethyl-10,12,14-trioxa-3-aza-11-silatriacontan-1-ol]	82	100.8	98.5	106.8	112.7	122.0	118.8	103.0	94.0	> 800
CCCCC/C=C\C/C=C\CCCCCCCCOC(CCCCCCC/C=C\CCCCCCCC)O[Si](C)(C)OCCCCCCN(CCO)CCO (stereo not drawn) [Example 46, (23Z,26Z)-13-((Z)-heptadec-8-en-1-yl)-3-(2-hydroxyethyl)-11,11-dimethyl-10,12,14-trioxa-3-aza-11-siladotriaconta-23,26-dien-1-ol]	81	103.7	100.6	101.2	97.4	103.1	101.8	99.8	92.1	> 800
CCCCC/C=C\C/C=C\CCCCCCCCOC(CCCCCCC/C=C\C/C=C\CCCCC)O[Si](C)(C)OCCCCCCN1CCOCC1 (stereo not drawn) [Example 55, 4-((20Z,23Z)-10-((8Z,11Z)-heptadeca-8,11-dien-1-yl)-8,8-dimethyl-7,9,11-trioxa-8-silanonacosa-20,23-dien-1-yl)morpholine]	21	91.7	90.4	92.4	90.9	94.1	90.7	7.9	1.9	316
CCCCCCCC/C=C\CCCCCCCCOC(=O)C(C)(C)CC(OCCCCCCCC/C=C\CCCCCCCC)O[Si](C)(C)OCCCCCCN(C)CCCCO (stereo not drawn) [Example 91, (Z)-octadec-9-en-1-yl 18-hydroxy-2,2,6,6,14-pentamethyl-4-(((Z)-octadec-9-en-1-yl)oxy)-5,7-dioxa-14-aza-6-silaoctadecanoate]	88	100.2	98.8	108.4	112.4	103.1	88.0	61.2	44.1	625
CCCCC/C=C\C/C=C\CCCCCCCCOC(CCCCCN(C)CC(O)CO)O[Si](C)(C)OCCCCCCCC/C=C\C/C=C\CCCCC (stereo not drawn) [Example 66, (22Z,25Z)-4,12,12-trimethyl-10-(((9Z,12Z)-octadeca-9,12-dien-1-yl)oxy)-11,13-dioxa-4-aza-12-silahentriaconta-22,25-diene-1,2-diol]	82	100.5	97.9	97.2	96.5	94.2	95.5	86.0	42.6	164
CCCCC/C=C\C/C=C\CCCCCCCCOC(CCCCCCCCCCCCCCC)O[Si](C)(C)OCCCCCCN(CCO)CCO (stereo not drawn) [Example 43, (23Z,26Z)-3-(2-hydroxyethyl)-11,11-dimethyl-13-pentadecyl-10,12,14-trioxa-3-aza-11-siladotriaconta-23,26-dien-1-ol]	83	100.9	98.7	102.2	111.9	114.9	108.9	92.1	89.8	> 800
